Assay: gradient 5% acetonitrile 3 min, to 50% in 2 min, to 85% in 15 min, held 3 min, 100 µL/min
Settings: column: Zorbax Extend-C18 2.1 x 50 mm; eluents: water / acetonitrile, 0.1% formic acid
Summary of the method: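 The mobile phases were water and acetonitrile, each with 0.1% formic acid, pumped at 100 μL/min through a Zorbax Extend-C18 column (2.1 × 50 mm, 1.8 μm). Pure standards were injected as mixtures of ~100 molecules and detected by a quadrupole time-of-flight mass spectrometer in positive and negative ionization mode. Retention time came from computationally picked adduct peaks, each inspected by hand.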

Q: With `CCN1c2ccc(C)cc2C(=O)NC12CCN(C(=O)c1cc(F)cc(F)c1)CC2` as the molecule, how does the RP-LC retention time read?
A: 858 s

Q: Which RP-LC retention time does the source give for `COCCc1noc(C2Cc3ccccc3N2C(=O)NCc2ccco2)n1` (centres undefined) here?
A: 807 s

Q: With `FC(F)(F)c1cccc(-c2noc(Cc3nnc(-c4ccccc4)o3)n2)c1` as the molecule, how does the RP-LC retention time read?
A: 1080 s

Q: Which RP-LC retention time does the source give for `COc1ccc(OC)c(NC(=O)c2cc(C)n(CCN(C)C)c2C)c1` here?
A: 636 s

Q: With `Cc1sc(-c2cc(C(F)(F)F)on2)cc1S(=O)(=O)N1CCOCC1` as the molecule, how does the RP-LC retention time read?
A: 1040 s

Q: With `CCOc1ccc(NC(=O)N2CCC3(CC2)NC(=O)c2ccccc2O3)cc1` as the molecule, how does the RP-LC retention time read?
A: 739 s

Q: For `COC(=O)C1=CN(C2CC2)c2cc(N3CCN(C(C)C)CC3)c(F)cc2S1(=O)=O`, which RP-LC retention time is on record?
A: 740 s

Q: Which RP-LC retention time does the source give for `Cc1ccccc1-c1nc2cnccn2c1NCCC(=O)NCC(C)C` here?
A: 636 s

Q: With `Cc1ccc(NC(=O)Cn2cnc3nc(N4CCCC(C(=O)NC(C)C)C4)sc3c2=O)c(C)c1` (centres undefined) as the molecule, how does the RP-LC retention time read?
A: 710 s

Q: For `COc1ccc(C(=O)N2CCC(c3noc(-c4cnccn4)n3)C2)cn1` (centres undefined), which RP-LC retention time is on record?
A: 790 s

Q: Which RP-LC retention time does the source give for `CN(NC(=O)CC(=O)NN(C)C(=S)c1ccccc1)C(=S)c1ccccc1` here?
A: 862 s

Q: With `COC(=O)c1cc2c(=O)n(-c3nc4ccc(OC)cc4s3)ccc2nc1C` as the molecule, how does the RP-LC retention time read?
A: 1160 s

Q: With `Cc1nn2c(NC(=O)CSc3nnc4sc5ccccc5n34)csc2nc1=O` as the molecule, how does the RP-LC retention time read?
A: 635 s

Q: For `O=C(CSc1nc2ccsc2c(=O)n1-c1ccccc1)Nc1ncn[nH]1`, which RP-LC retention time is on record?
A: 655 s

Q: With `COc1ccc(S(=O)(=O)CCCC(=O)Nc2nccs2)cc1` as the molecule, how does the RP-LC retention time read?
A: 661 s

Q: For `CC(=O)NCC(=O)N1CCCn2cc(-c3ccccc3F)nc21`, which RP-LC retention time is on record?
A: 580 s

Q: With `Cc1ccc(-c2n[nH]c(CCNC(=O)c3ccc(S(=O)(=O)N4CCOCC4)cc3)n2)cc1` as the molecule, how does the RP-LC retention time read?
A: 704 s

Q: For `CN1c2cc(C(=O)NCCCc3ccccc3)ccc2C(=O)N2CCCCC21` (centres undefined), which RP-LC retention time is on record?
A: 885 s

Q: Which RP-LC retention time does the source give for `CC1(C)CC(=O)c2cn(-c3ccc(Cl)cc3)c(=O)c(C(=O)N3CCC(N4CCCCC4)CC3)c2C1` here?
A: 667 s

Q: Which RP-LC retention time does the source give for `CCc1nc2sc(C)nn2c1S(=O)(=O)N1CCOCC1` here?
A: 699 s

Q: For `Cn1cc(-c2cc3n(n2)CCC(=O)N3CC(=O)NCc2ccccc2)c2ccccc21`, which RP-LC retention time is on record?
A: 798 s

Q: Which RP-LC retention time does the source give for `Nc1cc(C2CCN(C(=O)Nc3cccc(Br)c3)CC2)no1` here?
A: 744 s

Q: For `CC(C)c1ccc(N2C(=O)C3N=NN(Cc4nc(-c5ccc6c(c5)OCO6)no4)C3C2=O)cc1` (centres undefined), which RP-LC retention time is on record?
A: 1060 s

Q: For `Cc1cc(C)c(NC(=O)C2CCCN2S(=O)(=O)c2cc3c(cc2C)NC(=O)CO3)c(C)c1` (centres undefined), which RP-LC retention time is on record?
A: 799 s

Q: Which RP-LC retention time does the source give for `Cc1cnc(C(=O)N[C@@H]2CCC[C@@H]2C(=O)NCc2ccc3c(c2)OCO3)cn1` here?
A: 662 s

Q: With `O=C(Nc1ccccc1Cl)N1CCN(c2cc(-c3ccncc3)[nH]n2)CC1` as the molecule, how does the RP-LC retention time read?
A: 600 s

Q: For `COC[C@@H]1CN(S(=O)(=O)c2ccc(C)cc2)C[C@H]1c1ccncc1`, which RP-LC retention time is on record?
A: 651 s

Q: For `CNC(=O)c1sc2nc(-c3cccc(F)c3)c(NCCCOC)n2c1C`, which RP-LC retention time is on record?
A: 777 s

Q: With `CC1=NS(=O)(=O)N(C)C=C1C(=O)OCc1nc(Cc2cccc(C)c2)no1` as the molecule, how does the RP-LC retention time read?
A: 957 s

Q: Which RP-LC retention time does the source give for `CC1CC(=O)N(CC(=O)Nc2ccc(C(F)(F)F)cc2)c2ccccc2S1(=O)=O` (centres undefined) here?
A: 904 s

Q: Which RP-LC retention time does the source give for `Cn1nccc1-c1cccc(-c2noc(-c3cc(F)ccc3F)n2)c1` here?
A: 1100 s

Q: For `COc1ccc(-c2cc(N3CCN(C(=O)c4cccs4)CC3)n[nH]2)cc1`, which RP-LC retention time is on record?
A: 714 s

Q: Which RP-LC retention time does the source give for `COc1ccccc1NC(=O)CSc1ccc(N2CCCC(C(=O)NC3CC3)C2)nn1` (centres undefined) here?
A: 618 s

Q: For `COC[C@@H]1CN(S(=O)(=O)c2cccc(F)c2)C[C@H]1c1ccccn1`, which RP-LC retention time is on record?
A: 639 s

Q: With `O=C(c1ccc(-n2c(-c3ccccc3)nc3cccnc32)cc1)N1CCN(c2ccccn2)CC1` as the molecule, how does the RP-LC retention time read?
A: 613 s

Q: Which RP-LC retention time does the source give for `Cc1ccc(NC(=O)CSc2nccc(N3CCN(c4cc(C)ccc4C)CC3)n2)c(C)c1` here?
A: 1060 s

Q: For `COc1ccc(-c2ncc3c(n2)CCN(S(=O)(=O)c2cccc(F)c2)C3)cc1`, which RP-LC retention time is on record?
A: 1060 s

Q: With `COc1ccccc1N1CCN(c2ncc(S(=O)(=O)c3ccc(C)c(C)c3)c(N)n2)CC1` as the molecule, how does the RP-LC retention time read?
A: 1020 s

Q: With `Cc1cc(N2CCN(C)CC2)nc2ccc(NC(=O)NC3CCCC3)cc12` as the molecule, how does the RP-LC retention time read?
A: 568 s

Q: With `COc1cccc(-c2noc(Cn3ccn4nc(-c5ccc(F)cc5)cc4c3=O)n2)c1OC` as the molecule, how does the RP-LC retention time read?
A: 1010 s

Q: For `Cc1ccc(NC(=O)Cn2nc(C(=O)N3CCCC3)c3ccccc32)cc1`, which RP-LC retention time is on record?
A: 850 s

Q: Which RP-LC retention time does the source give for `Cc1cc(F)cc2c(=O)c3c([nH]c12)CCN(CC(=O)Nc1ccc2c(c1)OCO2)C3` here?
A: 615 s

Q: Which RP-LC retention time does the source give for `Cc1nn2c(CNS(=O)(=O)c3c(C)noc3C)c(C)nc2s1` here?
A: 640 s

Q: For `Cc1cc(NC(=O)NC(=O)c2ccccc2NC(=O)C(C)N)ccc1Oc1ncc(Br)cn1` (centres undefined), which RP-LC retention time is on record?
A: 715 s

Reference: the METLIN SMRT retention time set (Domingo-Almenara et al. 2019)
